Consider nine compounds from PubChem BioAssay (NCI).

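Assay format: 96-well plates, 48-hour exposure. Abbreviation: GI50, concentration required for 50% inhibition of growth. TGI: concentration producing complete growth inhibition.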 A value given as a limit tells only on which side of the number the result lay.

Test systems include SF-539 CNS; HOP-62 NSCLC; SW-620 colon; LOX IMVI melanoma; NCI-H226 lung; NCI-H23 lung; MALME-3M melanoma; HCT-116 colon; RXF 393 renal.
Common to all, as to assay: inhibition of tumour cell growth, NCI panel, 48 h

Regarding `NC(=NCc1ccccc1)N/N=C\c1ccnc2ccccc12`, the TGI in the experiment on SF-539 CNS is 29.2 µM; in the experiment with HOP-62 NSCLC it was 32.1 µM; in the experiment with SW-620 colon it was 31.2 µM; with LOX IMVI melanoma, 28.5 µM; in the experiment on NCI-H226 lung, 38.6 µM; in the experiment on NCI-H23 lung, 31.7 µM. Further, in the experiment on MALME-3M melanoma, the TGI was determined as 27 µM.
For `OCCC#Cc1ccccc1C#Cc1ccccc1`, the GI50 is 12.7 µM in the experiment on SF-539 CNS; 18.7 µM in the experiment on HOP-62 NSCLC; 13.4 µM in the experiment on SW-620 colon; 15.2 µM with NCI-H226 lung; 18.2 µM in the experiment on NCI-H23 lung; 14 µM in the experiment with MALME-3M melanoma. Further, the GI50 with HCT-116 colon is 17.5 µM. In addition, the TGI was determined as 27 µM in the experiment on SF-539 CNS; 33.9 µM with HOP-62 NSCLC; 28.2 µM in the experiment with SW-620 colon; 33.2 µM in the experiment with NCI-H226 lung; 39.9 µM in the experiment on NCI-H23 lung; 27.1 µM with MALME-3M melanoma. The TGI in the experiment with HCT-116 colon came out at 33.6 µM.
Turning to `CNS(=O)(=O)NN(C)S(=O)(=O)c1ccc(C)cc1`, the TGI in the experiment on RXF 393 renal, in the experiment on SF-539 CNS, in the experiment on HOP-62 NSCLC, in the experiment on SW-620 colon, in the experiment on NCI-H23 lung and in the experiment with MALME-3M melanoma was greater than 100 µM each time. Also, the TGI in the experiment on HCT-116 colon was greater than 100 µM.
Regarding `COC(=O)C1(C)CCc2c(ccc3ccccc23)C1=O` (stereo unspecified), the TGI is 67.5 µM in the experiment on RXF 393 renal; greater than 100 µM with SF-539 CNS; greater than 100 µM in the experiment on HOP-62 NSCLC; greater than 100 µM with SW-620 colon; greater than 100 µM in the experiment with LOX IMVI melanoma; greater than 100 µM in the experiment with NCI-H23 lung. Also, the TGI in the experiment with MALME-3M melanoma was 69 µM; in the experiment on HCT-116 colon it was greater than 100 µM.
For the compound `Cn1cc(-c2nonc2-c2cn(C)c3ccc(Br)cc23)c2ccccc21`, the GI50 in the experiment on RXF 393 renal is 1.99 µM; in the experiment on SF-539 CNS, 2.19 µM; in the experiment with HOP-62 NSCLC it was 5.51 µM; in the experiment on SW-620 colon, 2.53 µM; in the experiment with NCI-H226 lung it was 4.61 µM; with NCI-H23 lung, 4.72 µM. Also, the GI50 in the experiment with MALME-3M melanoma is 4.86 µM; in the experiment with HCT-116 colon, 4.3 µM. The TGI with RXF 393 renal was 5.46 µM; in the experiment with SF-539 CNS it was 6.13 µM; in the experiment on HOP-62 NSCLC, greater than 100 µM; in the experiment on SW-620 colon, greater than 100 µM; in the experiment with NCI-H226 lung, greater than 100 µM; in the experiment on NCI-H23 lung it was greater than 100 µM. Further, the TGI with MALME-3M melanoma and in the experiment on HCT-116 colon was greater than 100 µM each time.
For `CC(=O)[CH-]C(=O)c1ccccc1.CC(=O)[CH-]C(=O)c1ccccc1.[O-]Cc1cccs1.[O-]Cc1cccs1.[Ti+4]`, the GI50 was 71.2 µM in the experiment with SF-539 CNS; greater than 100 µM in the experiment with HOP-62 NSCLC; 49.9 µM in the experiment on SW-620 colon; 18.1 µM with LOX IMVI melanoma; 82.3 µM with NCI-H226 lung; greater than 100 µM with MALME-3M melanoma. In the experiment on HCT-116 colon, the GI50 was 33 µM. The TGI with SF-539 CNS is greater than 100 µM; with HOP-62 NSCLC, greater than 100 µM; in the experiment with SW-620 colon it was greater than 100 µM; in the experiment with LOX IMVI melanoma, 58 µM; with NCI-H226 lung, greater than 100 µM; in the experiment with MALME-3M melanoma it was greater than 100 µM. The TGI in the experiment on HCT-116 colon was greater than 100 µM.
With `COc1cccc(C2C3=C(COC3=O)N(CCO)c3cc4c(cc32)CCC4)c1` (stereo unspecified), the GI50 in the experiment on SF-539 CNS is 0.0457 µM; in the experiment on HOP-62 NSCLC, 0.147 µM; with SW-620 colon, 0.0252 µM; in the experiment on LOX IMVI melanoma, 0.0934 µM; in the experiment on NCI-H226 lung it was 0.274 µM; with NCI-H23 lung it was 0.0604 µM. Further, the figures for the GI50 in the experiment with MALME-3M melanoma and in the experiment on HCT-116 colon were 0.915 µM and 0.0526 µM, respectively. For the same compound, the TGI is greater than 16 µM in the experiment on HOP-62 NSCLC; greater than 50 µM in the experiment on SW-620 colon; greater than 37.1 µM in the experiment on LOX IMVI melanoma; greater than 27.8 µM in the experiment with NCI-H226 lung; 4.02 µM with NCI-H23 lung; greater than 50 µM in the experiment with MALME-3M melanoma. The compound further registered a TGI with HCT-116 colon of 0.692 µM.
As for `CC[C@]12C=CCN3CC[C@]4(C(=C(C(=O)OC)C1)Nc1ccccc14)[C@@H]32`, the GI50 in the experiment with RXF 393 renal was 2.51 µM; in the experiment on SF-539 CNS, 3.09 µM; in the experiment on HOP-62 NSCLC it was 9.78 µM; with SW-620 colon, 3.18 µM; in the experiment on LOX IMVI melanoma, 1.94 µM; with NCI-H23 lung, 4.37 µM. Also, the GI50 in the experiment with MALME-3M melanoma was 3.43 µM; with HCT-116 colon, 3.16 µM. The TGI came to 7.24 µM in the experiment on RXF 393 renal; 10.1 µM in the experiment with SF-539 CNS; 28.4 µM in the experiment with HOP-62 NSCLC; 12.3 µM with SW-620 colon; 4.13 µM in the experiment with LOX IMVI melanoma; 17.7 µM with NCI-H23 lung. Besides, the TGI in the experiment on MALME-3M melanoma was 15.2 µM; with HCT-116 colon, 10.9 µM.
In the case of `Cc1nc(N=C(N)N)nc2ccc3ccccc3c12`, the GI50 was 1.39 µM in the experiment on SF-539 CNS; 1.25 µM in the experiment with HOP-62 NSCLC; 0.897 µM in the experiment on SW-620 colon; 1.57 µM with LOX IMVI melanoma; 1.29 µM with NCI-H226 lung; 2.33 µM with NCI-H23 lung. In the experiment with HCT-116 colon, the GI50 is 1.12 µM. Besides, the TGI in the experiment on SF-539 CNS worked out at 2.98 µM; in the experiment on HOP-62 NSCLC, 3.6 µM; in the experiment on SW-620 colon, 10.3 µM; in the experiment with LOX IMVI melanoma it was 3.18 µM; with NCI-H226 lung, 3.58 µM; with NCI-H23 lung it was 7.31 µM. In addition, in the experiment on HCT-116 colon, the TGI was 4.82 µM.
